Calls of active or inactive are those of the source. No cut-off for these calls is given here.
What was measured:
MDA-MB-231 = assay: Cytotoxicity against human MDA-MB-231 cells assessed as reduction in cell viability after 72 hrs by MTT assay; format: functional, cell-based; conditions: for IC50: MDA-MB-231, 72 h
MCF7 = assay: Cytotoxicity against human MCF7 cells assessed as reduction in cell viability after 72 hrs by MTT assay; format: functional, cell-based; conditions: for IC50: MCF7, 72 h

Compound	IC50 (MDA-MB-231)	IC50 (MCF7)	Activity (MDA-MB-231)	Activity (MCF7)
O=C(/C=C/c1ccc(O)cc1)c1ccc(O)c(O)c1O	> 10 µM	> 10 µM	–	–
COc1ccc2c(c1)OC(c1ccccc1)CC2=O (stereo not given)	–	–	inactive	inactive
O=C(CCc1ccc(O)cc1)c1c(O)cc(O)cc1O [PHLORETIN]	> 10 µM	> 10 µM	–	–
O=C(CCc1ccc(O)cc1)c1ccc(O)cc1O [DAVIDIGENIN]	> 10 µM	> 10 µM	–	–
COc1cc(C(=O)/C=C/c2ccc(Cl)c(Cl)c2)cc(OC)c1OC	> 10 µM	7 µM	–	–
O=C(/C=C/c1ccc(O)cc1)c1cc(O)ccc1O	> 10 µM	> 10 µM	–	–
O=C(/C=C/c1ccc(O)cc1)c1c(O)cc(O)cc1O [4,2',4',6'-TETRAHYDROXYCHALCONE]	> 10 µM	> 10 µM	–	–
O=C1CC(c2ccc(O)cc2)Oc2cc(O)cc(O)c21 (stereo not given)	–	–	inactive	inactive
O=C(/C=C/c1ccc(O)cc1)c1ccc(O)cc1 [4,4'-DIHYDROXYCHALCONE]	> 10 µM	> 10 µM	–	–
COc1ccc(C(=O)CCc2ccccc2)c(O)c1	> 10 µM	> 10 µM	–	–
O=C(/C=C/c1ccc(O)cc1)c1ccc(O)cc1O [ISOLIQUIRITIGENIN]	> 10 µM	> 10 µM	–	–
COc1ccc(C(=O)/C=C/c2ccc(O)c(OC)c2)c(OC)c1	> 10 µM	3.1 µM	–	–
COc1ccc(/C=C/C(=O)c2cc(OC)c(OC)c(OC)c2)cc1	6.5 µM	0.71 µM	–	–
COc1cc(/C=C/C(=O)c2ccc(OC)c(OC)c2OC)cc(OC)c1OC	7.4 µM	> 10 µM	–	–
O=C(/C=C/c1ccccc1)c1ccc(O)cc1O [2',4'-DIHYDROXYCHALCONE]	> 10 µM	> 10 µM	–	–
O=C(/C=C/c1ccc(O)cc1)c1cc(Cc2c(O)ccc(C(=O)/C=C/c3ccc(O)cc3)c2O)c(O)cc1O	> 10 µM	> 10 µM	–	–
COc1ccc(/C=C/C(=O)c2ccc(OC)cc2OC)cc1 [METOCHALCONE]	7.9 µM	1.5 µM	–	–
CC(=O)O[C@H]1C(=O)[C@@]2(C)[C@H]([C@H](OC(=O)c3ccccc3)[C@]3(O)C[C@H](OC(=O)[C@H](O)[C@@H](NC(=O)c4ccccc4)c4ccccc4)C(C)=C1C3(C)C)[C@]1(OC(C)=O)CO[C@@H]1C[C@@H]2O [PACLITAXEL]	0.0039 µM	–	–	–

— ChEMBL document CHEMBL3779875, “Cytotoxic Evaluation against Breast Cancer Cells of Isoliquiritigenin Analogues from Spatholobus suberectus and Their Synthetic Derivatives” (J Nat Prod, 2016)
